# In patent publication US8822182B2, “Chimeric antigen-specific T cell-activating polypeptides” (Mayo Foundation for Medical Education and Research, priority 2001, dated 2014):
# Read-outs that look alike come from different tables or passages of the source.
# Columns and labels:
# [1] = system: TAP deficient RMA-S targets; assay type: cell-based, mouse; settings: ConA-activated CTL, 10 μM overnight; for sensitization of targets for killing by OVA257-specific CTL: FIG. 9 left panel; for sensitization of targets for killing by 2C-specific CTL: FIG. 9 middle panel
# [2] = system: TAP-deficient RMA-S target cells; assay type: cell-based, mouse; settings: peptide epitope-activated CTL; for sensitization of targets for lysis by LCMV-specific CTL: FIG. 10C (right panel)
# [3] = system: TAP-deficient T2 target cells; assay type: cell-based, human
# [4] = system: TAP-expressing 221.A2 target cells; assay: 51Cr release cytotoxicity assay, human CEA-specific CTL line, 221.A2 targets; assay type: cell-based; settings: TAP-competent targets, incubated overnight with peptide, FIG. 1A
# [5] = system: TAP-deficient T2 target cells; assay: 51Cr release cytotoxicity assay, human CEA-specific CTL line, T2 targets; assay type: cell-based; settings: for effect of brefeldin-A (BFA) on sensitization of T2 cells: BFA 1 μg/ml, CEA-specific CTL, E:T 20:1, FIG. 4; for ability to sensitize target cells for CTL lysis: TAP-deficient targets, incubated overnight with peptide, FIG. 1B; for sensitizing activity after pre-incubation with trypsin: trypsin at 37° C., E:T 20:1, FIG. 2B; for capacity to sensitize targets for CTL lysis: 10 μM overnight, E:T 20:1, FIG. 2C
# [6] = system: TAP-competent cells expressing H-2K^b (L-K^b); assay: Immunofluorescence and confocal microscopy of H-2K^b/OVA257 complexes, TAP-competent cells; assay type: cell-based, mouse
# Experimental: (§1) T2/K^b or L-K^b cells were cultured overnight on poly-lysine treated glass coverslips. The culture medium was discarded, and the cells were gently washed with PBS. The cells were pre-incubated with serum-free AIM-V medium at 37° C. for 30 minutes and then incubated with peptide/TA solutions at the indicated concentrations for 12 hour at 37° C. After peptide loading, the cells were washed and fixed with 2% formaldehyde for 20 minutes at room temperature. For indirect immunofluorescence, fixed cell monolayers were permeabilized with 0.2% Triton X100 in PBS and incubated with PBS containing 5% goat serum to block non-specific protein binding sites. The cells were double-labeled with mouse monoclonal antibody 25D1.16 specific to OVA257/H-2K^b complex and rabbit polyclonal antibody TGN38 (TGN marker) or rabbit anti-calreticulin (ER marker), followed by 1 hour staining with FITC anti-mIgG and TR anti-rIgG as secondary antibodies. After washing, the coverslips were mounted for observation on glass slides using the Prolong Antifade Kit. The stained cells were examined and photographed with a Leica TCS-SL confocal laser-scanning microscope (Bensheim, Germany).
# Utilizing the monoclonal antibody 25D1.16 that specifically reacts with H-2K^b/OVA257 complexes and confocal microscopy, the formation and presence of this CTL epitope in permeabilized TAP-competent and TAP-deficient cells expressing H-2K^b was evaluated. […] These cells were also stained with an antibody specific for calreticulin which is localized within the ER.
# [7] = system: TAP-deficient T2/K^b cells; assay: Flow cytometry of surface H-2K^b/OVA257 complexes (25D1.16) with protease inhibitors, T2/K^b cells; assay type: cell-based, human; settings: antigen 10 μM overnight; for effect of furin inhibitor decRVKR-CMK on expression of surface H-2K^b/OVA257 complexes (decrease): decRVKR-CMK 60 μM, FIGS. 8D-8F; for effect of lactacystin on level of surface H-2K^b/OVA257 complexes (increase): lactacystin 10 μM, FIGS. 6C and 6D; for effect of pepstatin-A on amounts of surface peptide/MHC class I complexes (increase): pepstatin 100 μM, FIGS. 7C and 7D
# Experimental: (§2) The effects of protease inhibitors on antigen processing and presentation were evaluated by analysis of 25D1.16 staining on different antigen-pulsed EL-4 or T2/K^b cells using flow cytometric analysis. In brief, EL-4 or T2/K^b cells were washed twice with serum-free AIM-V medium (Life Technologies, Rockville, Md.), pre-treated with protease inhibitors (10 μM lactacycstin, 100 μM pepstatin or 60 μM decRVKR-CMK) for 30 minutes and then pulsed with equimolar concentrations of different (as indicated) peptides at 37° C. overnight with the continuous presence of the corresponding protease inhibitors. The serum-free AIM-V medium was used in order to exclude the potential involvement of serum proteases during the peptide-pulsing process. After washing the cells twice with FACS buffer (PBS (phosphate buffered saline) supplemented with 2% FBS and 0.2% sodium azide), peptide-loaded APC were stained with 25D1.16 antibody followed by FITC anti-mIgG for flow analysis. Untreated EL-4 and T2/K^b cells were pulsed with peptides and stained as controls.
# The data described above indicate that TA can be processed in various cellular compartments to produce small peptide epitopes that subsequently associate with MHC class I molecules and the resulting peptide-MHC class I complexes are then transported to the cell surface. Antigen processing could take place: (1) in the cytoplasm, via proteasomal degradation followed by TAP transport; (2) within the ER, where peptide trimming via an aminopeptidase could occur; (3) in the trans-Golgi, where processing of antigens through proteases such as furin can occur; and/or (4) in early endocytic compartments, where peptides that could either bind to recycling MHC class I molecules or leak into other compartments of the MHC class I pathway can be generated. Utilizing antibody 25D1.16, we studied the effects of various inhibitors of antigen processing in the formation of H-2K^b/OVA257 surface complexes by peptides OVA257-HIVtat and HIVtat-OVA257.
# [8] = system: TAP-competent EL-4 cells; assay: Flow cytometry of surface H-2K^b/OVA257 complexes (25D1.16) with protease inhibitors, EL-4 cells; assay type: cell-based, mouse; settings: antigen 10 μM overnight; for effect of furin inhibitor decRVKR-CMK on expression of surface H-2K^b/OVA257 complexes (decrease): decRVKR-CMK 60 μM, FIGS. 8A-8C; for effect of lactacystin on amount of surface H-2K^b/OVA257 complexes: lactacystin 10 μM, FIGS. 6A and 6B; for effect of pepstatin-A on amounts of surface peptide/MHC class I complexes (increase): pepstatin 100 μM, FIGS. 7A and 7B
# Experimental: as §2
# [9] = system: Murine dendritic cells (DC); assay: Persistence in dendritic cells: IFN-γ ELISA of OT-1 CTL cultured with pulsed DC; assay type: cell-based, mouse; settings: DC pulsed 10 μM 2 hours, washed, further 48 hours, CTL:DC 10:1 for 24 hours, FIG. 14
# Experimental: Murine dendritic cells (DC) were prepared by culturing C57BL6 mouse (H-2^b) bone marrow […] in the presence of granulocyte macrophage colony stimulating factor (GM-CSF) and interleukin-4 (IL-4) by a method essentially the same as that described by Son et al. [(2002) J. Immunol. Meth. 262:145-157] except that non-adherent cells are removed from the cultures and discarded on day 2 of culture and no density gradient centrifugation step was used. Cells not adhering to the plastic tissue culture vessel at day 6 of culture were harvested and used as DC.
# DC were pulsed with either the TA HIVtat-OVA257 (see Table 2) or the peptide epitope OVA257, each at a concentration of 10 μM, for 2 hours at 37° C. The cells were then washed free of the TA or peptide epitope and incubated for a further 48 hours. They were then cultured with cells of the OT-1 CTL clone (specific for H-2K^b/OVA257) at a CTL to DC ratio of 10:1 for 24 hours. Supernatants were then removed from the cultures and the relative amounts of IFN-γ in various dilutions of each supernatant were measured by ELISA (FIG. 14). […] These findings indicate that a peptide epitope persists in DC for a longer period of time when taken up by DC in the form of a TA than when taken up by DC in the form of the peptide epitope per se.
# [10] = system: C57BL/6 mice; assay type: in vivo, mouse; settings: 50 μg in IFA; spleen and lymph node cells cultured with IL-2 for 7 days, FIG. 12
# [11] = system: TAP-expressing 221.A2 target cells; assay type: cell-based, human
# [12] = system: TAP-deficient cells (T2/K^b); assay: Immunofluorescence and confocal microscopy of H-2K^b/OVA257 complexes, T2/K^b cells; assay type: cell-based, human
# Experimental: as §1
# An antibody specific for trans-Golgi network (TGN38) was used to test whether H-2K^b/OVA257 complexes could also be detected in the trans-Golgi network of cells incubated with TA peptides. […] In these cells, antibody TGN38 stained brightly a structure corresponding to the trans-Golgi. […] These observations reinforce the findings that TA peptides need to penetrate cells in order to create MHC class I/peptide complexes. In addition, these complexes are observed in both the ER and trans-Golgi, even in TAP-deficient cells.
sequence,measurement,setting,value
"IKAVYNFATCG [LCMV, reference compound]",sensitization of targets for lysis by LCMV-specific CTL,[1]; FIG. 9 right panel,only the short minimal epitope was effective
same,sensitization of targets for lysis by LCMV-specific CTL,[2],relatively high amount of the peptide epitope required to sensitize
IKAVYNFATCGVRVVSIYRYYGLVRVVSIINFEKLAAARKKRRQRRR [TA3-C],sensitization of targets for killing by OVA257-specific CTL,[1],much less effective
same,sensitization of targets for killing by 2C-specific CTL,[1],much less effective
same,effectiveness in sensitizing RMA-S targets relative to TA3-A (less effective),"[2]; E:T 10:1, FIG. 10",at least 100 fold
same,"sensitization of targets for lysis by CTL specific for all three peptide epitopes (OVA257, 2C, LCMV)","[2]; E:T 10:1, FIG. 10",also sensitized the RMA-S targets for lysis
"IMDQVPSFV [gp100209, reference compound]",effect of brefeldin-A (BFA) on sensitization of T2 cells,[3],did not block
"IMIGVLVGV (epitope) [CEA691, reference compound]",ability to sensitize target cells for CTL lysis,[4],"similar, if not identical, activities"
same,effect of brefeldin-A (BFA) on sensitization of T2 cells,[5],did not block
same,ability to sensitize target cells for CTL lysis,[5],"similar, if not identical, activities"
same,effect of competitor peptide HBc18-27 on sensitization of target cells for CTL lysis,"[5]; antigen 1 μM, 30 minutes, E:T 20:1, FIG. 2A",efficient at inhibiting the sensitization of target cells for CTL lysis by peptide CEA691
same,sensitizing activity after pre-incubation with trypsin,[5]; antigen 1 μM,did not modify this peptide's sensitizing activity
IMIGVLVGVAAARKKRRQRRR [CEA691-HIVtat],ability to sensitize target cells for CTL lysis,[4],"similar, if not identical, activities"
same,ability to sensitize target cells for CTL lysis,[5],"similar, if not identical, activities"
same,sensitizing activity after pre-incubation with trypsin,[5]; antigen 1 μM,lost most of its activity
IMIGVLVGVKKK [CEA691-KKK],capacity to sensitize targets for CTL lysis,[5],"none of peptides CEA691-KKK, CEA691-RRR or CEA691-RKK were able to sensitize"
IMIGVLVGVRKK [CEA691-RKK],capacity to sensitize targets for CTL lysis,[5],"none of peptides CEA691-KKK, CEA691-RRR or CEA691-RKK were able to sensitize"
IMIGVLVGVRRR [CEA691-RRR],capacity to sensitize targets for CTL lysis,[5],"none of peptides CEA691-KKK, CEA691-RRR or CEA691-RKK were able to sensitize"
RKKRRQRRRAAAIMIGVLVGV [HIVtat-CEA691],effect of brefeldin-A (BFA) on sensitization of T2 cells,[5],effective in blocking
RKKRRQRRRAAASIINFEKL [HIVtat-OVA257],presence of H-2K^b/OVA257 complexes in permeabilized cells,[6]; 25D1.16 staining,abundant
same,H-2K^b/OVA257 complexes within the ER,[6]; 25D1.16 superimposed with calreticulin staining,abundant H-2K^b/OVA257 complexes were present within the ER
same,effect of furin inhibitor decRVKR-CMK on expression of surface H-2K^b/OVA257 complexes (decrease),[7],no effect was observed
same,effect of lactacystin on level of surface H-2K^b/OVA257 complexes (increase),[7],did not have an appreciable effect
same,effect of pepstatin-A on amounts of surface peptide/MHC class I complexes (increase),[7],did not have an appreciable effect
same,effect of furin inhibitor decRVKR-CMK on expression of surface H-2K^b/OVA257 complexes (decrease),[8],no effect was observed
same,effect of lactacystin on amount of surface H-2K^b/OVA257 complexes,[8],did not have an effect
same,effect of pepstatin-A on amounts of surface peptide/MHC class I complexes (increase),[8],did not have an appreciable effect
same,IFN-γ produced by OT-1 CTL cultured with pulsed DC,[9],a high level of IFN-γ was produced
RKKRRQRRRAAASVYDEFFVWLKVKRLPYLGWLVFKVKRSGPSNTPPEI [TA5],"peptide epitope-specific cytotoxic activity of effector cells from immunized mice (E1A, P1A, TRP-2 pulsed versus unpulsed RMA-S targets)",[10],significant peptide epitope-specific cytotoxic activity was detected
RKKRRQRRRAAASVYDEFFVWLVRVVLPYLGWLVFVRVVSGPSNTPPEI [TAG],"peptide epitope-specific cytotoxic activity of effector cells from immunized mice (E1A, P1A, TRP-2 pulsed versus unpulsed RMA-S targets)",[10],no significant cytotoxic activity
RKKRRQRRRIKAVYNFATCGRVKRSIINFEKLRVKRSIYRYYGL [TA3-D],sensitization of targets for lysis by LCMV-specific CTL,[2],less effective
same,sensitization of targets for lysis by OVA257-specific CTL,[2]; FIG. 10 left panel,as effective as the others
same,sensitization of targets for lysis by 2C-specific CTL,[2]; FIG. 10 middle panel,as effective as the others
RQIKIWFPNRRMKWKKAEIDLIMDQVPFSVLRTED [AntpHD-gp100209],sensitization of targets for lysis by gp100209-specific CTL clone,[11],efficiently sensitized
same,effect of brefeldin-A (BFA) on sensitization of T2 cells,[3],effective in blocking
same,sensitization of targets for lysis by gp100209-specific CTL clone,[3],efficiently sensitized
SIINFEKLAAARKKRRQRRR [OVA257-HIVtat],effect of furin inhibitor decRVKR-CMK on expression of surface H-2K^b/OVA257 complexes (decrease),[7],about 10 fold
same,effect of lactacystin on level of surface H-2K^b/OVA257 complexes (increase),[7],about 3 fold
same,effect of pepstatin-A on amounts of surface peptide/MHC class I complexes (increase),[7],3-5 fold
same,effect of furin inhibitor decRVKR-CMK on expression of surface H-2K^b/OVA257 complexes (decrease),[8],about 10 fold
same,effect of lactacystin on amount of surface H-2K^b/OVA257 complexes,[8],did not have an effect
same,effect of pepstatin-A on amounts of surface peptide/MHC class I complexes (increase),[8],3-5 fold
same,amount of intracellular H-2K^b/OVA257 complexes,[12]; 25D1.16 staining,High amounts of intracellular H-2K^b/OVA257 complexes
same,localization of H-2K^b/OVA257 complexes to the trans-Golgi,[12]; 25D1.16 superimposed with TGN38 staining,majority of the H-2K^b/OVA257 complexes localized within the trans-Golgi
SIINFEKLRVKRIKAVYNFATCGRVKRSIYRYYGLAAARKKRRQRRR [TA3-B],sensitization of targets for killing by OVA257-specific CTL,[1],could effectively kill targets sensitized
same,sensitization of targets for killing by 2C-specific CTL,[1],could effectively kill targets sensitized
